From patent US10329294B2, “Pyrazolopyrimidine inhibitors of IRAK4 activity” (MERCK SHARP & DOHME CORP., priority 2015, dated 2019)
pIC50: −log10 of the molar value. Where a name gives a salt, the structure may show the parent alone.

biological target: IRAK4 (Homo sapiens (Human), UniProt Q9NWZ3); assay: IRAK4 Kinase Assay; format: biochemical; settings: IMAP fluorescence polarization, 0.5 nM GST tagged IRAK4, 100 μM ATP, 30 minutes at 25° C.; read-out: IRAK4 IC50
Sequence (Q9NWZ3 whole entry): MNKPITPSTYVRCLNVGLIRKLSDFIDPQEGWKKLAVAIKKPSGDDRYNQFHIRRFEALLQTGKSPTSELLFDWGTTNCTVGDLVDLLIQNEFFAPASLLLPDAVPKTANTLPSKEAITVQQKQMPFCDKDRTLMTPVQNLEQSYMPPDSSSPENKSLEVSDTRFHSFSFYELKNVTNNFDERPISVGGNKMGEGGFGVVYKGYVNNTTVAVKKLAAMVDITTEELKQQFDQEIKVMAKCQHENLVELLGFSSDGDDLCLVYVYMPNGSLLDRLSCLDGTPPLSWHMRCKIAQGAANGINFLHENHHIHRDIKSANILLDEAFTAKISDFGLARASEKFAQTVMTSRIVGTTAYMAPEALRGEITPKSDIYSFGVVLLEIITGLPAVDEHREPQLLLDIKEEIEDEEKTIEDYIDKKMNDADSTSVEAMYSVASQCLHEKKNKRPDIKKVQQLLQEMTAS
Method: The kinase activity of IRAK4 is determined by its ability to catalyze the phosphorylation of a fluorescent polypeptide substrate. The extent of phosphorylation is measured using the IMAP technology (Molecular Devices) where the phosphorylated fluorescent substrate binds to the large M(III)-based nanoparticles which reduces the rotational speed of the substrate and thus increases its fluorescent polarization (FP).
20 μL reaction mixture contains 10 mM TriHCl, pH 7.2, 0.5 nM GST tagged IRAK4 (SignalChem), 100 nM fluorescent peptide substrate (RP7030, Molecular Devices), 100 μM ATP, 1 mM DDT, 1 mM MgCl2, and 0.01% Tween 20. The reaction is initiated by the addition of ATP. After incubation for 30 minutes at 25° C., 60 μL of Progressive IMAP Reagent (Molecular Devices) is added to stop the reaction. Change in RP7030's FP is determined by a FP reader (Analyst HT, LJL BioSystems).

Row | Compound | pIC50
1 | Cn1cc(NC(=O)c2cnn3ccc(NC4CNCC(F)(F)C4)nc23)c(C(F)(F)F)n1 (centres unmarked) [Example 217, 5-[(5,5-difluoropiperidin-3-yl)amino]-N-[1-methyl-3-(trifluoromethyl)-1H-pyrazol-4-yl]pyrazolo[1,5-a]pyrimidine-3-carboxamide] | 7.33
2 | Cn1cc(NC(=O)c2cnn3ccc(N[C@H]4CCC(F)(F)C[C@H]4N)nc23)c(C(F)F)n1 (single isomer, unassigned) [Example 209, 5-{[(1S,2R)- or (1R,2S)-2-amino-4,4-difluorocyclohexyl]amino}-N-[3-(difluoromethyl)-1-methyl-1H-pyrazol-4-yl]pyrazolo[1,5-a]pyrimidine-3-carboxamide] | 9.00
3 | Cn1cc(NC(=O)c2cnn3ccc(N4[C@H]5CCNC[C@@H]4CC5)nc23)c(C(F)(F)F)n1 (single isomer, unassigned) [Example 222, 5-[(1R,6S)- or (1S,6R)-3,9-diazabicyclo[4.2.1]non-9-yl]-N-[1-methyl-3-(trifluoromethyl)-1H-pyrazol-4-yl]pyrazolo[1,5-a]pyrimidine-3-carboxamide trifluoroacetate] | 6.77
4 | Cn1cc(NC(=O)c2cnn3ccc(N[C@H]4CNCC(F)(F)C4)nc23)c(C(F)(F)F)n1 (single isomer, unassigned) [Example 219, 5-{[(3S)- or (3R)-5,5-difluoropiperidin-3-yl]amino}-N-[1-methyl-3-(trifluoromethyl)-1H-pyrazol-4-yl]pyrazolo[1,5-a]pyrimidine-3-carboxamide] | 8.15
5 | Cn1cc(NC(=O)c2cnn3ccc(NC4CNCCC4F)nc23)c(C(F)F)n1 (single isomer, unassigned) [Example 234, N-[3-(difluoromethyl)-1-methyl-1H-pyrazol-4-yl]-5-[(3R or S, 4R or S-4-fluoropiperidin-3-yl)amino]pyrazolo[1,5-a]pyrimidine-3-carboxamide] | 8.30
6 | Cn1cc(NC(=O)c2cnn3ccc(N4CC[C@H]5CC[C@@H](C4)N5)nc23)c(C(F)(F)F)n1 (single isomer, unassigned) [Example 89, 5-[(1R,6S)- or (1S,6R)-3,9-diazabicyclo[4.2.1]non-3-yl]-N-[1-methyl-3-(trifluoromethyl)-1H-pyrazol-4-yl]pyrazolo[1,5-a]pyrimidine-3-carboxamide trifluoroacetate] | 6.57
7 | Cn1cc(NC(=O)c2cnn3ccc(N[C@@H]4CNCC[C@H]4F)nc23)c(C(F)(F)F)n1 (single isomer, unassigned) [Example 232, 5-{[(3R,4R)- or (3S,4S)-4-fluoropiperidin-3-yl]amino}-N-[1-methyl-3-(trifluoromethyl)-1H-pyrazol-4-yl]pyrazolo[1,5-a]pyrimidine-3-carboxamide] | 7.89
8 | Cn1cc(NC(=O)c2cnn3ccc(N4C[C@H](N)C[C@@H](F)C4)nc23)c(C(F)F)n1 [Example 253, 5-[(3R,5R)-3-amino-5-fluoropiperidin-1-yl]-N-[3-(difluoromethyl)-1-methyl-1H-pyrazol-4-yl]pyrazolo[1,5-a]pyrimidine-3-carboxamide trifluoroacetate] | 9.30
9 | O=C(Nc1ccsc1Br)c1cnn2ccc(N3CCCNCC3)nc12 [Example 127, N-(2-bromothiophen-3-yl)-5-(1,4-diazepan-1-yl)pyrazolo[1,5-a]pyrimidine-3-carboxamide trifluoroacetate] | 6.38
10 | O=C(Nc1ccsc1Cl)c1cnn2ccc(N3CC4CCC3CN4)nc12 (centres unmarked) [Example 134, N-(2-chlorothiophen-3-yl)-5-(2,5-diazabicyclo[2.2.2]oct-2-yl)pyrazolo[1,5-a]pyrimidine-3-carboxamide trifluoroacetate] | 6.51

Results, then the compound that gave them:

Row | pIC50 | Compound
11 | 6.92 | Cn1cc(NC(=O)c2cnn3ccc(N4CCNCC4C(F)(F)F)nc23)c(C(F)(F)F)n1 (centres unmarked) [Example 215, N-[1-methyl-3-(trifluoromethyl)-1H-pyrazol-4-yl]-5-[2-(trifluoromethyl)piperazin-1-yl]pyrazolo[1,5-a]pyrimidine-3-carboxamide trifluoroacetate]
12 | 6.03 | N[C@@H]1[C@H](Nc2ccn3ncc(C(=O)Nc4cn(CC(F)(F)F)nc4C(F)(F)F)c3n2)CCCC1(F)F [Example 69, 5-{[(1R,2R)-2-amino-3,3-difluorocyclohexyl]amino}-N-[1-(2,2,2-trifluoroethyl)-3-(trifluoromethyl)-1H-pyrazol-4-yl]pyrazolo[1,5-a]pyrimidine-3-carboxamide trifluoroacetate]
13 | 7.62 | CN[C@H]1CCCC[C@H]1Nc1ccn2ncc(C(=O)Nc3cn(C)nc3C(F)(F)F)c2n1 [Example 262, N-(1-Methyl-3-(trifluoromethyl)-1H-pyrazol-4-yl)-5-(((1R,2S)-2-(methylamino)cyclohexyl)amino)pyrazolo[1,5-a]pyrimidine-3-carboxamide]
14 | 6.30 | Cn1cc(NC(=O)c2cnn3ccc(N4CCN5CCC4CC5)nc23)c(C(F)(F)F)n1 [Example 40, 5-(1,4-diazabicyclo[3.2.2]non-4-yl)-N-[1-methyl-3-(trifluoromethyl)-1H-pyrazol-4-yl]pyrazolo[1,5-a]pyrimidine-3-carboxamide trifluoroacetate]
15 | 7.35 | Cn1cc(NC(=O)c2cnn3ccc(N4CCN5CCC4C5)nc23)c(C(F)(F)F)n1 (centres unmarked) [Example 43, 5-(1,4-diazabicyclo[3.2.1]oct-4-yl)-N-[1-methyl-3-(trifluoromethyl)-1H-pyrazol-4-yl]pyrazolo[1,5-a]pyrimidine-3-carboxamide trifluoroacetate]
16 | 7.54 | O=C(Nc1cn(CC(F)F)nc1C(F)(F)F)c1cnn2ccc(N3CCNCC3)nc12 [Example 62, N-[1-(2,2-difluoroethyl)-3-(trifluoromethyl)-1H-pyrazol-4-yl]-5-piperazin-1-ylpyrazolo[1,5-a]pyrimidine-3-carboxamide trifluoroacetate]
17 | 7.09 | O=C(Nc1cn(CC(F)(F)F)nc1C(F)(F)F)c1cnn2ccc(N3CCNCC3)nc12 [Example 299, 5-piperazin-1-yl-N-[1-(2,2,2-trifluoroethyl)-3-(trifluoromethyl)-1H-pyrazol-4-yl]pyrazolo[1,5-a]pyrimidine-3-carboxamide trifluoroacetate]
18 | 7.62 | Cn1cc(NC(=O)c2cnn3ccc(N4CCNCC4C4CC4)nc23)c(C(F)(F)F)n1 (centres unmarked) [Example 29, 5-(2-cyclopropylpiperazin-1-yl)-N-[1-methyl-3-(trifluoromethyl)-1H-pyrazol-4-yl]pyrazolo[1,5-a]pyrimidine-3-carboxamide trifluoroacetate]
19 | 7.55 | Cn1cc(NC(=O)c2cnn3ccc(N4CC5CCC4CN5)nc23)c(C(F)(F)F)n1 (centres unmarked) [Example 11, 5-(2,5-diazabicyclo[2.2.2]oct-2-yl)-N-[1-methyl-3-(trifluoromethyl)-1H-pyrazol-4-yl]pyrazolo[1,5-a]pyrimidine-3-carboxamide hydrochloride]
20 | 6.83 | Cn1cc(NC(=O)c2cnn3ccc(N4CCNCC(F)C4)nc23)c(C(F)(F)F)n1 (centres unmarked) [Example 27, 5-(6-fluoro-1,4-diazepan-1-yl)-N-[1-methyl-3-(trifluoromethyl)-1H-pyrazol-4-yl]pyrazolo[1,5-a]pyrimidine-3-carboxamide trifluoroacetate]
